Source: patent US20250082595A1, “METHODS AND COMPOSITIONS FOR TREATING PARKINSON’S DISEASE” (priority 2022, published 2025)
Values joined by “and” are separate entries in the source; they are usually repeats but may differ in a detail not shown here. Equal entries are not always repeated.

Legend:
[1] = Plasma exposure (AUC) of LD and CD after SC infusion, oral IR tablet, and SC + oral coadministration of LD/CD; format: in vivo
Excerpt: A test was run in order to assess the plasma exposure of levodopa (LD) following the coadministration of LD and carbidopa (CD) in both subcutaneous (SC) and oral administrations. Accordingly, results obtained from a combined SC+oral administration were compared to results obtained from SC administration alone and from oral administration alone. An additive plasma exposure and PK profile was expected, i.e., it was expected that the SC+oral coadministration would provide results equal to the additive results of the SC and oral administrations, when each was administered separately.
16 healthy subjects (18-50 years) were treated in a crossover manner, i.e., sequentially, with a washout period of 6 days between the following two treatments: • Treatment A: A total dose of 180/22.5 mg LD/CD (formulation A) was administered by SC infusion over the course of 8 hours, at a steady infusion rate. • Treatment B: An immediate release (IR) tablet of 100/25 mg LD/CD was administered orally at time 0 h.
Following a 32 hour washout period, the same 16 healthy subjects were administered with LC/CD both orally and subcutaneously according to the following treatment: • Treatment C: A dose of 153.6/19.2 LD/CD (formulation A) was administered by SC infusion over the course of 8 hours, at a steady infusion rate, combined with a single co-administration of an oral IR LD/CD 100/25 mg tablet, 4 hours after the initiation of the infusion. Total LD/CD dose: 253.6/44.2 mg.
The normalized AUC0-8 of LD and CD of Treatment C, resulting from the combined SC and oral treatment, as described above, was calculated and compared to the sum of the normalized LD and CD AUCs obtained from Treatment A (AUC0-8 resulting from 8 h SC infusion) and Treatment B (AUC0-4 resulting from one IR oral tablet).

[2] = Description: The objective of this study was to determine the pharmacokinetics (PK) of levodopa (LD) in domestic pigs following continuous subcutaneous (SC) infusion of a levodopa prodrug, exemplified using LD-Tyr, administered concomitantly with oral Levodopa.
Table 6 provides the LD-Tyr formulation tested in this study: […]
The study consisted of 3 dosing sessions in which 5 female pigs (Swine/Landrace×large White, ˜40-50 kg each) were treated with the LD-Tyr solution of Table 6 and/or Sinemet JR oral tablets (CD/LD 25/100 mg tablet) in a cross-over design with up to 4-day washout period between dosing sessions, as detailed in the following tables:
As presented in Tables 7 and 8 above, the study included the following three test groups: • G1—received only SC LD-Tyr (600 mg total daily dose); • G2—received only oral LD (300 mg total daily dose); and • G3—received both SC LD-Tyr (600 mg total daily dose) and oral LD (200 mg total daily dose).
Blood samples for the determination of LD-Tyr (in groups 1 and 3), as well as LD and CD plasma levels (in all groups) were collected from the pigs at the following timepoints: • 0 (pre-dose), 30 min, 1 h, 2 h, 3 h, 4 h, 4.5 h, 5 h, 6 h, 7 h, 8 h, 8.5 h, 9 h, 10 h, 11 h, 13 h, 15 h 18 h following treatment initiation. Tablets were administered before blood collection (time 0, 4 and 8 h).
Plasma samples were analyzed for concentration of LD-Tyr (groups 1 and 3), as well as LD and CD (for all groups) using a qualified LC-MS/MS analytical method.
PK parameters (at least Cmax, tmax, t1/2, AUC) for LD-Tyr, LD and CD were calculated by noncompartmental methods using appropriate software (e.g. Phoenix® WinNonlin®). Individual and mean was calculated for quantitative parameters.
The LD exposure obtained from the SC infusion is considered to be the baseline.

[3] = geomean of group, Treatment A SC 8 h, normalized × 0.853
[4] = geomean of group, oral IR tablet 100/25 mg LD/CD

With `C[C@@](Cc1ccc(O)c(O)c1)(NN)C(=O)O` [CD, carbidopa] the “CD: 4. Treatment C AUC (0-8) [Observed], Geomean Group” value ([1]; geomean of group, SC + oral) was 1051, the “CD: 1. Treatment A AUC (0-8) × 0.853, Geomean Group” value [1, 3] was 900 and the “CD: 2. Treatment B AUC (0-4), Geomean Group” value [1, 4] was 309. For the same compound, the “CD: 3. Combined 1 + 2 [Estimated], Geomean Group” value ([1]; human, in vivo) was 1209, the “CD: Observed (C) vs. Additive Ratio, Geomean Group (mean ratio)” value ([1]; human, in vivo) was 0.869 and the “CD: Observed (C) vs. Additive Ratio, Geomean Individual” value ([1]; human, in vivo) was 0.866. The “CD: 4. Treatment C AUC (0-8) [Observed]” value ([1]; individual subject (ID), SC 153.6/19.2 LD/CD over 8 h + oral IR LD/CD 100/25 mg tablet at 4 h) was 1086, the “CD: 1. Treatment A AUC (0-8) × 0.853” value ([1]; individual subject (ID), Treatment A: 180/22.5 mg LD/CD formulation A, SC infusion over 8 h, AUC × 0.853) was 955 and 988 and 925 and the “CD: 2. Treatment B AUC (0-4)” value ([1]; individual subject (ID), oral IR tablet 100/25 mg LD/CD at 0 h) was 318.

For `N[C@@H](Cc1ccc(O)c(O)c1)C(=O)O` [LD, L-3,4-dihydroxyphenylalanine], the “LD: 4. Treatment C AUC (0-8) [Observed], Geomean Group” value ([1]; geomean of group, SC 153.6/19.2 LD/CD over 8 h + oral 100/25 mg tablet at 4 h) was 4817, the “LD: 1. Treatment A AUC (0-8) × 0.853, Geomean Group” value [1, 3] was 2412 and the “LD: 2. Treatment B AUC (0-4), Geomean Group” value [1, 4] was 1458. The “LD: 3. Combined 1 + 2 [Estimated], Geomean Group” value ([1]; geomean of group, sum A + B) was 3870, the “LD: Observed (C) vs. Additive Ratio, Geomean Individual” value ([1]; geomean of individual ratios) was 1.240 and the “LD: Observed (C) vs. Additive Ratio, Geomean Group (mean ratio)” value ([1]; group geomean, Treatment C vs. A+B) was 1.245. For the same compound, the “LD: 1. Treatment A AUC (0-8) × 0.853” value ([1]; individual subject (ID), Treatment A: 180/22.5 mg LD/CD formulation A, SC infusion over 8 h, AUC × 0.853 to equal SC dose of Treatment C) was 2236 and 2266 and 2218, the “LD: 4. Treatment C AUC (0-8) [Observed]” value ([1]; individual subject (ID), Treatment C: 153.6/19.2 LD/CD formulation A SC over 8 h + oral IR LD/CD 100/25 mg tablet at 4 h) was 6325 and 5031 and 5059 and 4610 and 3961 and the “LD: 3. Combined 1 + 2 [Estimated]” value ([1]; individual subject (ID), sum of normalized Treatment A AUC and Treatment B AUC) was 3087. For the same compound, the “Synergism ratio, Mean” value ([2]; animal 115 excluded) was 1.57, the “Synergism ratio, Median” value ([2]; animal 115 excluded) was 1.49 and the “Synergism ratio (actual / predicted LD AUC of oral add-ons)” value ([2]; individual pig) was “above 1”. The “Increase of LD plasma exposure by oral add-ons, on top of LD exposure from SC administration alone, versus predicted (average)” value ([2]; pigs, SC LD-Tyr/CD + oral LD/CD) was “over 50%”.
